Reference: PMC10838953

Legend:
GRK4 = GRK4 (Homo sapiens, UniProt P32298); experiment: biochemical; conditions: read-out: %Ctrl @ 2000nM
TSSK1B = TSSK1B (Homo sapiens, UniProt Q9BXA7); experiment: biochemical; conditions: read-out: %Ctrl @ 2000nM
MYLK4 = MYLK4 (Homo sapiens, UniProt Q86YV6); experiment: biochemical; conditions: read-out: %Ctrl @ 2000nM
CSF1R-autoinhibited = CSF1R-autoinhibited (Homo sapiens, UniProt P07333); experiment: biochemical; conditions: read-out: %Ctrl @ 2000nM
PDPK1 = PDPK1 (Homo sapiens, UniProt O15530); experiment: biochemical; conditions: read-out: %Ctrl @ 2000nM
CAMK2D = CAMK2D (Homo sapiens, UniProt Q13557); experiment: biochemical; conditions: read-out: %Ctrl @ 2000nM
PIK3CA(I800L) = PIK3CA(I800L) (Homo sapiens, UniProt P42336, I800L); experiment: biochemical; conditions: read-out: %Ctrl @ 2000nM
CASK = CASK (Homo sapiens, UniProt O14936); experiment: biochemical; conditions: read-out: %Ctrl @ 2000nM
Chain of CASK (O14936 whole entry): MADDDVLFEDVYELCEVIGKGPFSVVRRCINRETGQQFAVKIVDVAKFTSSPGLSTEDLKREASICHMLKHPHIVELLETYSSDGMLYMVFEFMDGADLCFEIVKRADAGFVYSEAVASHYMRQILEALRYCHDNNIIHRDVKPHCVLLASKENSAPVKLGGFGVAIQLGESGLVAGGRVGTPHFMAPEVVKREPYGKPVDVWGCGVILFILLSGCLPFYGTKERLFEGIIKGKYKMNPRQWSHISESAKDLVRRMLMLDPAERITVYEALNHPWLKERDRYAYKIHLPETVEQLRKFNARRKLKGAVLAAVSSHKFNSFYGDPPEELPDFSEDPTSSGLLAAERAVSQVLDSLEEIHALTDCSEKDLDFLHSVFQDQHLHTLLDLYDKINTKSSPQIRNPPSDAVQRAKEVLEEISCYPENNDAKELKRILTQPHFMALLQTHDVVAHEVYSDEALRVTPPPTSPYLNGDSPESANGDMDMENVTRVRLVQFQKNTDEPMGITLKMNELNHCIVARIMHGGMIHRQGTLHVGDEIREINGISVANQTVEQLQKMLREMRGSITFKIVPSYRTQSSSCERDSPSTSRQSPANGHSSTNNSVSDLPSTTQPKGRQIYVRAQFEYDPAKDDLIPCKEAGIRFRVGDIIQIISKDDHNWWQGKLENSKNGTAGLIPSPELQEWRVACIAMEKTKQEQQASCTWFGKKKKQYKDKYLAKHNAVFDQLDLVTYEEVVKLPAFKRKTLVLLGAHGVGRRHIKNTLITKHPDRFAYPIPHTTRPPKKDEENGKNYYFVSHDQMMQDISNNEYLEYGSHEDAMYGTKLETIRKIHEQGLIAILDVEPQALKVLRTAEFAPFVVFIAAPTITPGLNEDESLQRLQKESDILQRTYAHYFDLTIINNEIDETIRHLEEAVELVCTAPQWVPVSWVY

MINK = MINK (Homo sapiens, UniProt Q8N4C8); experiment: biochemical; conditions: read-out: %Ctrl @ 2000nM
TRKC = TRKC (Homo sapiens, UniProt Q16288); experiment: biochemical; conditions: read-out: %Ctrl @ 2000nM
RET = RET (Homo sapiens, UniProt P07949); experiment: biochemical; conditions: read-out: %Ctrl @ 2000nM
LZK = LZK (Homo sapiens, UniProt O43283); experiment: biochemical; conditions: read-out: %Ctrl @ 2000nM
VEGFR2 = VEGFR2 (Homo sapiens, UniProt P35968); experiment: biochemical; conditions: read-out: %Ctrl @ 2000nM
ERK8 = ERK8 (Homo sapiens, UniProt Q8TD08); experiment: biochemical; conditions: read-out: %Ctrl @ 2000nM
MLK2 = MLK2 (Homo sapiens, UniProt Q02779); experiment: biochemical; conditions: read-out: %Ctrl @ 2000nM
DYRK2 = DYRK2 (Homo sapiens, UniProt Q92630); experiment: biochemical; conditions: read-out: %Ctrl @ 2000nM
PIP5K2C = PIP5K2C (Homo sapiens, UniProt Q8TBX8); experiment: biochemical; conditions: read-out: %Ctrl @ 2000nM
caspase-3 in 786-O cells = conditions: 72 h, compounds at 20 μM
LATS1 = LATS1 (Homo sapiens, UniProt O95835); experiment: biochemical; conditions: read-out: %Ctrl @ 2000nM
[1] = molecular target: ABL1(M351T)-phosphorylated (Homo sapiens, UniProt P00519, M351T); experiment: biochemical; conditions: read-out: %Ctrl @ 2000nM
ERBB4 = ERBB4 (Homo sapiens, UniProt Q15303); experiment: biochemical; conditions: read-out: %Ctrl @ 2000nM
Chain of ERBB4 (Q15303 26-1308): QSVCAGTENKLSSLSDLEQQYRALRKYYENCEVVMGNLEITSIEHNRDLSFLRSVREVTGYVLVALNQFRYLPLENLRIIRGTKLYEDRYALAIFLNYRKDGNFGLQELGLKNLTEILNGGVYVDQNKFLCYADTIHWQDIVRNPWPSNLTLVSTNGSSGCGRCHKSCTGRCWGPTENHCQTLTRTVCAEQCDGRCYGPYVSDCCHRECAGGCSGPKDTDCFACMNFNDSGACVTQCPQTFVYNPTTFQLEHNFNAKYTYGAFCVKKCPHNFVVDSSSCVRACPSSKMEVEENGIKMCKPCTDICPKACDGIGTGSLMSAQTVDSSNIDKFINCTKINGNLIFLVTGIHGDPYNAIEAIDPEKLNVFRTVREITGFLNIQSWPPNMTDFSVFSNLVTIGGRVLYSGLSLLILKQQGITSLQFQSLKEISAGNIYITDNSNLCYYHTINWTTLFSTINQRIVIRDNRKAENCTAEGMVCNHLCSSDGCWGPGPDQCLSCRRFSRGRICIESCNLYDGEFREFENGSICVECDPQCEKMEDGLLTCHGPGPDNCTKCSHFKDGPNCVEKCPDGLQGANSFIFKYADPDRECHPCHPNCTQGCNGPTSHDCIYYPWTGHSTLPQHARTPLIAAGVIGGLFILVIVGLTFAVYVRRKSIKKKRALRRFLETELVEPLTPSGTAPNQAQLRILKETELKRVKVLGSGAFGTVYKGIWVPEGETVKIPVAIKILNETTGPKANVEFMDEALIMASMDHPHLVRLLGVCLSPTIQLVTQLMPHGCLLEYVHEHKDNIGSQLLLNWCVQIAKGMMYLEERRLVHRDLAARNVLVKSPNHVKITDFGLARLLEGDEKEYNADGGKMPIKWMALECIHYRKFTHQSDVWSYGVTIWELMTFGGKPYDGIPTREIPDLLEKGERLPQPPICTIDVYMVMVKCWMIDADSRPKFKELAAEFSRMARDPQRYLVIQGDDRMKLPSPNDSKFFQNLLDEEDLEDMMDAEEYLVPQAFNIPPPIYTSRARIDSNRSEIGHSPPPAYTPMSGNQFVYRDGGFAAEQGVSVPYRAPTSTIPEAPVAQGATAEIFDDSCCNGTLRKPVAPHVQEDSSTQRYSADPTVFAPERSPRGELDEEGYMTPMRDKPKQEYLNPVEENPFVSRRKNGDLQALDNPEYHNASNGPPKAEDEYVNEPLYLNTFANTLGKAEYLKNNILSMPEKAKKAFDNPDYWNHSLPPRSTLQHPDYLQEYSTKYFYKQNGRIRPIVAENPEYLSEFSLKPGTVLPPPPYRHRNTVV

LTK = LTK (Homo sapiens, UniProt P29376); experiment: biochemical; conditions: read-out: %Ctrl @ 2000nM
CAMK1 = CAMK1 (Homo sapiens, UniProt Q14012); experiment: biochemical; conditions: read-out: %Ctrl @ 2000nM
GRK2 = GRK2 (Homo sapiens, UniProt P25098); experiment: biochemical; conditions: read-out: %Ctrl @ 2000nM
HPK1 = HPK1 (Homo sapiens, UniProt Q92918); experiment: biochemical; conditions: read-out: %Ctrl @ 2000nM
Chain of HPK1 (Q92918 whole entry): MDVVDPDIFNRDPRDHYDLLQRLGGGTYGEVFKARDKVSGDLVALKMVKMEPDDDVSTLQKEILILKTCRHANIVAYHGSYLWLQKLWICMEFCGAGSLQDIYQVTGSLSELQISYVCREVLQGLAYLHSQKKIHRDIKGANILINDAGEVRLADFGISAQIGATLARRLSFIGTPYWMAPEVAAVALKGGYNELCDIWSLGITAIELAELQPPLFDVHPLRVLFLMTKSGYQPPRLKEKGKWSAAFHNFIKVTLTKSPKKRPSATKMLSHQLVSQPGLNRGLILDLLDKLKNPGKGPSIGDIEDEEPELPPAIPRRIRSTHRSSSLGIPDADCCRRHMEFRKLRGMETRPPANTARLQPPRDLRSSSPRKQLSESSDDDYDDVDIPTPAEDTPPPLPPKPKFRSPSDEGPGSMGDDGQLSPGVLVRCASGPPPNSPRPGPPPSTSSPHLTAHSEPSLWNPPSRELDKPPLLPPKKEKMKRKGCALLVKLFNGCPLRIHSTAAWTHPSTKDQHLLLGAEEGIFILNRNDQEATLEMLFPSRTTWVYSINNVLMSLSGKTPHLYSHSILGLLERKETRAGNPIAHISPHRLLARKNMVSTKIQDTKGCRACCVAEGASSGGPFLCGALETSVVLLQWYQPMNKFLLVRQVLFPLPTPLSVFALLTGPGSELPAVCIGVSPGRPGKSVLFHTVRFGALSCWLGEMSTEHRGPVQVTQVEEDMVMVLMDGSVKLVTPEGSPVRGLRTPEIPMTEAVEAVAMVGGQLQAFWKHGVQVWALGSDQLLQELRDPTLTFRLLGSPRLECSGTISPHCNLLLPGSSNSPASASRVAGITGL

LRRK2(G2019S) = LRRK2(G2019S) (Homo sapiens, UniProt Q5S007, G2019S); experiment: biochemical; conditions: read-out: %Ctrl @ 2000nM
ROCK2 = ROCK2 (Homo sapiens, UniProt O75116); experiment: biochemical; conditions: read-out: %Ctrl @ 2000nM
CHEK1 = CHEK1 (Homo sapiens, UniProt O14757); experiment: biochemical; conditions: read-out: %Ctrl @ 2000nM
FLT1 = FLT1 (Homo sapiens, UniProt P17948); experiment: biochemical; conditions: read-out: %Ctrl @ 2000nM
Chain of FLT1 (P17948 27-1338): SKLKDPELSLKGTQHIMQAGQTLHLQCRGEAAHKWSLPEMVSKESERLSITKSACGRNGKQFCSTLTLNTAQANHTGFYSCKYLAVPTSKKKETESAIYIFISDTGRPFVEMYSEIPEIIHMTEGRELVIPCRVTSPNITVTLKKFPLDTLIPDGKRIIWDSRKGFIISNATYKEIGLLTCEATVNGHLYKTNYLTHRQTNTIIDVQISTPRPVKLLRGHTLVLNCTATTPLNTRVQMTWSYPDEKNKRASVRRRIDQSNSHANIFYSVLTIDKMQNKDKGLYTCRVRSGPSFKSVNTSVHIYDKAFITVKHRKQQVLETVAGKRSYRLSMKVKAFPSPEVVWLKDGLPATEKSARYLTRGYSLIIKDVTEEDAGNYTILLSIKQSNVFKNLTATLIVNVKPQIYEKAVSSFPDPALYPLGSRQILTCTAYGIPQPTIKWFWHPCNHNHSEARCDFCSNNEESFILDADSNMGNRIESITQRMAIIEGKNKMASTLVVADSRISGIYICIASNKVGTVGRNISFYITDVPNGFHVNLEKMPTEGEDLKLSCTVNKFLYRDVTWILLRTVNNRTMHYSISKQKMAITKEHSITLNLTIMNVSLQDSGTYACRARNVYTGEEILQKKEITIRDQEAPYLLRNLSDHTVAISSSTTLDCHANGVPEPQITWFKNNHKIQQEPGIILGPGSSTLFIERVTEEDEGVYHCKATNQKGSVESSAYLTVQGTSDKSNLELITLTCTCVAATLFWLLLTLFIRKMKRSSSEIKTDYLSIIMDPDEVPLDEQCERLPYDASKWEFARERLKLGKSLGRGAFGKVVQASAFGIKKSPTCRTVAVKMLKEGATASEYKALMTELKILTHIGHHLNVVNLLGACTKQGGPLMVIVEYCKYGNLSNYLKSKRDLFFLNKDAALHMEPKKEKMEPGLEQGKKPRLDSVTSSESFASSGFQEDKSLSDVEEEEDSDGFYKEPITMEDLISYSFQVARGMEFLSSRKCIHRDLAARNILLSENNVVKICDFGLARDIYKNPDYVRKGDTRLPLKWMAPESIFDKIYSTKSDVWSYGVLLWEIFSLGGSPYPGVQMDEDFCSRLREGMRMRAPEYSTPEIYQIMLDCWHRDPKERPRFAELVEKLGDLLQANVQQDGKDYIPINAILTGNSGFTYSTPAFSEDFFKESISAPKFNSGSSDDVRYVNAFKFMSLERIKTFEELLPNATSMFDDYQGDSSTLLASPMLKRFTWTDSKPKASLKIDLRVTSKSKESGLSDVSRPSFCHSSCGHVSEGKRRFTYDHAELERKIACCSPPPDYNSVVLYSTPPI

NEK9 = NEK9 (Homo sapiens, UniProt Q8TD19); experiment: biochemical; conditions: read-out: %Ctrl @ 2000nM
DDR2 = DDR2 (Homo sapiens, UniProt Q16832); experiment: biochemical; conditions: read-out: %Ctrl @ 2000nM
EGFR(G719C) = EGFR(G719C) (Homo sapiens, UniProt P00533, G719C); experiment: biochemical; conditions: read-out: %Ctrl @ 2000nM
MAP4K2 = MAP4K2 (Homo sapiens, UniProt Q12851); experiment: biochemical; conditions: read-out: %Ctrl @ 2000nM
ARK5 = ARK5 (Homo sapiens, UniProt O60285); experiment: biochemical; conditions: read-out: %Ctrl @ 2000nM
CAMK1G = CAMK1G (Homo sapiens, UniProt Q96NX5); experiment: biochemical; conditions: read-out: %Ctrl @ 2000nM
[2] = molecular target: ABL1(H396P)-phosphorylated (Homo sapiens, UniProt P00519, H396P); experiment: biochemical; conditions: read-out: %Ctrl @ 2000nM
BMPR1A = BMPR1A (Homo sapiens, UniProt P36894); experiment: biochemical; conditions: read-out: %Ctrl @ 2000nM
MAP3K1 = MAP3K1 (Homo sapiens, UniProt Q13233); experiment: biochemical; conditions: read-out: %Ctrl @ 2000nM
MKNK2 = MKNK2 (Homo sapiens, UniProt Q9HBH9); experiment: biochemical; conditions: read-out: %Ctrl @ 2000nM
EGFR(E746-A750del) = EGFR(E746-A750del) (Homo sapiens, UniProt P00533, DEL746-750); experiment: biochemical; conditions: read-out: %Ctrl @ 2000nM
PIP5K2B = PIP5K2B (Homo sapiens, UniProt P78356); experiment: biochemical; conditions: read-out: %Ctrl @ 2000nM
p38-gamma = p38-gamma (Homo sapiens, UniProt P53778); experiment: biochemical; conditions: read-out: %Ctrl @ 2000nM
CAMKK1 = CAMKK1 (Homo sapiens, UniProt Q8N5S9); experiment: biochemical; conditions: read-out: %Ctrl @ 2000nM
Chain of CAMKK1 (Q8N5S9 whole entry): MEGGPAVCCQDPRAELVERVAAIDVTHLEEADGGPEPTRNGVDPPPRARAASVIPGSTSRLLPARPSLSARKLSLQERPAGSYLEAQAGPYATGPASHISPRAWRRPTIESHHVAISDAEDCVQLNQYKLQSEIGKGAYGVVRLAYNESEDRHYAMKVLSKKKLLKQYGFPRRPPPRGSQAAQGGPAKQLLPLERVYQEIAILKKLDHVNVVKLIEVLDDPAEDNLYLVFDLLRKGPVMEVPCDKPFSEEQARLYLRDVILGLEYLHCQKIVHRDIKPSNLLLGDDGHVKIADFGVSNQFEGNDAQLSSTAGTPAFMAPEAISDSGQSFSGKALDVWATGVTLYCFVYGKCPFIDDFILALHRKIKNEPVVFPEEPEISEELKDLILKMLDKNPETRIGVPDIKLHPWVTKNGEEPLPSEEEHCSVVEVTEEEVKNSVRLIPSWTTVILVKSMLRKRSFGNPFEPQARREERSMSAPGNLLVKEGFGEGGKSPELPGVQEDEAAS

Compound `CC(C)COC(=O)c1[nH]c2ccc(F)cc2c1-c1cn(CC2CCN(CCNS(=O)(=O)c3ccc(CC(C)C)cc3)CC2)nn1` [AB668, isobutyl 5-fluoro-3-(1-((1-(2-((4-isobutylphenyl)sulfonamido)ethyl)piperidin-4-yl)methyl)-1H-1,2,3-triazol-4-yl)-1H-indole-2-carboxylate] has a remaining activity at 2 µM (GRK4) of 98%, a remaining activity at 2 µM (TSSK1B) of 91% and a remaining activity at 2 µM (MYLK4) of 100%. For the same compound, the remaining activity at 2 µM (CSF1R-autoinhibited) was 85%, the remaining activity at 2 µM (PDPK1) was 98% and the remaining activity at 2 µM (CAMK2D) was 89%. It also gave a remaining activity at 2 µM (PIK3CA(I800L)) of 98%, a remaining activity at 2 µM (CASK) of 97% and a remaining activity at 2 µM (MINK) of 100%. For the same compound, the remaining activity at 2 µM (TRKC) was 100%, the remaining activity at 2 µM (RET) was 87% and the remaining activity at 2 µM (LZK) was 100%. For the same compound, the remaining activity at 2 µM (VEGFR2) was 98%, the remaining activity at 2 µM (ERK8) was 53% and the remaining activity at 2 µM (MLK2) was 73%. The remaining activity at 2 µM (DYRK2) was 76%, the remaining activity at 2 µM (PIP5K2C) was 81% and the caspase-3 activation (caspase-3 in 786-O cells) was “induced caspase-3 activation”. The remaining activity at 2 µM (LATS1) was 100%, the remaining activity at 2 µM [1] was 86% and the remaining activity at 2 µM (ERBB4) was 97%. For the same compound, the remaining activity at 2 µM (LTK) was 94%, the remaining activity at 2 µM (CAMK1) was 77% and the remaining activity at 2 µM (GRK2) was 100%. It also gave a remaining activity at 2 µM (HPK1) of 92%, a remaining activity at 2 µM (LRRK2(G2019S)) of 86% and a remaining activity at 2 µM (ROCK2) of 83%. The remaining activity at 2 µM (CHEK1) was 95%, the remaining activity at 2 µM (FLT1) was 85% and the remaining activity at 2 µM (NEK9) was 94%. For the same compound, the remaining activity at 2 µM (DDR2) was 94%, the remaining activity at 2 µM (EGFR(G719C)) was 83% and the remaining activity at 2 µM (MAP4K2) was 100%. It also gave a remaining activity at 2 µM (ARK5) of 83%, a remaining activity at 2 µM (CAMK1G) of 80% and a remaining activity at 2 µM [2] of 80%. It also gave a remaining activity at 2 µM (BMPR1A) of 77%, a remaining activity at 2 µM (MAP3K1) of 91% and a remaining activity at 2 µM (MKNK2) of 100%. The remaining activity at 2 µM (EGFR(E746-A750del)) was 88%, the remaining activity at 2 µM (PIP5K2B) was 100% and the remaining activity at 2 µM (p38-gamma) was 74%. For the same compound, the remaining activity at 2 µM (CAMKK1) was 88%.
